Measurements as given in patent US9416181B2, “Compositions for cell culture and methods of using the same” (AbbVie Inc., priority 2013, dated 2016).
“Also recorded” adds a separate entry of the source.

Key:
[1] = tested on: Cell Line 1 (CHO) expressing Antibody 1; assay: Cell culture performance (cell growth, viability, titer), Cell Line 1 shake flask fed-batch culture; type: cell-based, Chinese Hamster
Procedure: (§1) A recombinant Chinese Hamster Ovary (CHO) cell line (Cell Line 1) expressing a humanized monoclonal antibody (Antibody 1) was evaluated in 2 different cultures vessels (shaker flasks and 3 L laboratory-scale bioreactors). The cell line was of CHO DUX-B11 origin based on a DHFR (dihydrofolate reductase) expression system and cultured in a chemically defined basal media, and fed periodically with a chemically-defined feed media (CDFM). The media utilized throughout all of the experiments were chemically-defined, and both animal-component free, and protein-free. Each of the respective media were supplemented as needed with selected bioflavonoids to evaluate for their potential impact on the resulting acidic species profile. In preparation of the cultures, the cell lines were serially expanded through separate seed train inoculums to generate enough cells for inoculation. Process conditions utilized during the cultures were slightly different depending on the culture scale, but similar within each scale to the respective non-bioflavonoid supplemented control conditions. All bioflavonoids utilized were purchased from Sigma-Aldrich (St. Louis, Mo.).
Viable cell density (VCD) and cell viability values were measured through trypan blue exclusion via Cedex automated cell counters (Roche Applied Science, Indianapolis, Ind.), glucose and lactate values were measured with a ABL-805 (Radiometer Medical, Denmark) blood gas analyzer. Offline pH, dissolved oxygen (DO), and pCO2 measurements were performed as needed with an ABL-805 (Radiometer Medical, Denmark) blood gas analyzer. Osmolality was measured as needed on a Multi-Osmette 2430 osmometer (Precision Systems, Natick, Mass.).
Antibody titers were measured from crude cell culture harvests on a Poros A™ (Life Technologies, Carlsbad, Calif.) affinity column using an HPLC system operating with a low pH, step elution gradient with detection at 280 nm. Absolute concentrations were assigned with respect to reference standard calibration curves.
(§2) In this Example, EGCG was added into the feed (cell culture medium) at the concentration range of 5 mg/L (low), 20 mg/L (mid) and 50 mg/L (high) in a shaker experiment to determine the impact of EGCG on product quality of a humanized monoclonal antibody (Antibody 1). Detailed cell culture conditions are as described in Table 1.
However, it was not clear whether or not additional bioflavonoids would also have the same effects. To evaluate the impact of alternative bioflavonoids, fed-batch shake flask cultures were initiated with CDFM supplemented with 3 different concentrations of genistein, rutin, and naringin, in addition to EGCG. Cell growth, viability, as well as titers and acidic species variants were measured.
To evaluate the impact of other bioflavonoids, fed-batch shake flask cultures were initiated with CDFM supplemented with multiple concentrations of rutin. Cell growth, viability, as well as titers and acidic species variants were measured and shown in FIGS. 14 and 15, respectively.

[2] = tested on: Cell Line 1 (CHO) expressing Antibody 1; assay: Intracellular ROS by flow cytometry (H2-DCF), Cell Line 1 3 L bioreactor culture; type: cell-based, Chinese Hamster; conditions: bioreactor cultures; Days 6, 8, 12, 15; vs unsupplemented control
Procedure: At least 10×10^6 cells were harvested from 3 L bioreactor cultures on Days 6, 8, 12, and 15 after inoculation. Immediately after sampling, the samples were centrifuged and the cell pellet was washed with 1×PBS, and re-suspended in 1 mL of pre-warmed 1×PBS. 2 μL of 2 mM H2-DCF (Life Technologies, Grand Island, N.Y.) in DMSO (Sigma-Aldrich, St. Louis, Mo.) was then added and incubated at 37° C. for 30 minutes and covered from light. The cell suspension was then centrifuged and resuspended in 1×PBS twice to wash the cells and remove residual fluorophore. The cells were then loaded onto a FACSCalibur (Becton Dickinson, Franklin Lakes, N.J.) flow cytometer for the measurement of intracellular ROS at 492-495 nm/517-527 nm excitation/emission.

[3] = tested on: Cell Line 3 (CHO) expressing DVD1; assay: Cell culture performance, Cell Line 3 shake flask culture; conditions: shaker
[4] = tested on: Cell Line 3 (CHO) expressing DVD1; assay: Acidic species variants (WCX-10) of DVD1, Cell Line 3 shake flask culture; type: cell-based, Chinese Hamster; conditions: shaker
Procedure: Four different recombinant Chinese Hamster Ovary (CHO) cell lines expressing four different recombinant glycoproteins were evaluated in either shaker flask culture, or 3 L laboratory scale bioreactors. Cell Line 1 was genetically engineered to express Antibody 1, Cell Line 2 was genetically engineered to express Antibody 2, Cell Line 3 was genetically engineered to express dual variable domain immunoglobulin 1 (DVD1) and Cell Line 4 was genetically engineered to express dual variable domain immunoglobulin 2 (DVD2).
Charge Heterogeneity via Weak Cation Exchange Chromatography-Samples were analyzed using an HPLC system equipped with a ProPac WCX-10 analytical column (Thermo Scientific, Sunnyvale, Calif.). Approximately 100 μg of sample was loaded in 6% Buffer B (10 mM sodium phosphate, 500 mM NaCl, pH 5.5) and 94% Buffer A (10 mM sodium phosphate, pH 7.5). The column was run at a flow rate of 1.0 mL/min. The protein was eluted from the column by increasing the buffer B composition from 6% to 16% over 20 minutes. The protein peaks were measured using UV absorbance at 280 nm as the peaks eluted from the column. The column was regenerated using 100% buffer B followed be a re-equilibration period using initial condition before the injection of the next sample. Peaks eluting before the main peak were termed ‘acidic peaks’ and peaks eluting after the main peak were called ‘basic peaks’ (FIG. 2).
To assess the impact of EGCG on acidic region variants on recombinant proteins, dual variable domain immunoglobulin 1 (DVD1) was examined. EGCG was added at the concentrations of 0.02 g/L, 0.05 g/L, 0.1 g/L and 0.2 g/L into the feed in a shaker experiment (See Table 2). […] At the concentration of 0.2 g/L, EGCG led to 15% viability decrease and 28% productivity loss compared to control condition. Upon measurement of the acidic species variants, EGCG supplement reduced the total acidic species in a dose-dependent manner. At the concentrations of 0.02 g/L, 0.05 g/L, 0.1 g/L and 0.2 g/L respectively, EGCG reduced the total acidic species content 5%, 10%, 17% and 22% relatively compared to the unsupplemented control (FIG. 13D).

[5] = tested on: Cell Line 1 (CHO) expressing Antibody 1; assay: Aggregate content (SEC) of Antibody 1, Cell Line 1 shake flask fed-batch culture; type: cell-based, Chinese Hamster; conditions: shaker
Procedure: as §1
Protein A purified antibody samples from Cell Line 1 were diluted when necessary to 0.5-5 mg/mL in 1×PBS, and measured on a TSKgel G3000SWXL column (Tosoh Bioscience, South San Francisco, Calif.) using an isocratic gradient on an HPLC system with detection at 280 nm. High molecular weight (HMW), monomer, and low molecular weight (LMW) species were assigned and subsequently quantitated based on the chromatographic profile.
as §2

[6] = concentrations above 0.1 g/L in CDFM, shake flask

O=C(O[C@@H]1Cc2c(O)cc(O)cc2O[C@@H]1c1cc(O)c(O)c(O)c1)c1cc(O)c(O)c(O)c1 [EGCG, epigallocatechin gallate]
cell growth vs control ([1]; 0.1 g/L in CDFM, shake flask): significantly lower than that of the control culture
cell viability vs control ([1]; 0.1 g/L in CDFM, shake flask, cultures proceeded until Day 12): comparable to the control
impact on cell culture performance (cell growth, viability, titer) ([1]; 5, 20 and 50 mg/L in feed, shaker): no impact on cell culture performance
cell growth [1, 6]: adversely impacted
culture duration reached before viability became too low [1, 6]: 8 days
harvest titer ([1]; higher levels of supplement, shake flask, Day 12 harvest): decreased titer
intracellular ROS level [2]: marked reduction of overall ROS level; also recorded: reduced the intracellular ROS level in a dose-dependent fashion
growth profile, viability and productivity vs control ([3]; 0.02, 0.05 and 0.1 g/L in feed): performed very similarly to control cultures
viability decrease compared to control ([3]; 0.2 g/L in feed): 15%
relative reduction of total acidic species content vs unsupplemented control ([4]; 0.02 g/L in feed): 5%
relative reduction of total acidic species content vs unsupplemented control ([4]; 0.05 g/L in feed): 10%
relative reduction of total acidic species content vs unsupplemented control ([4]; 0.1 g/L in feed): 17%
relative reduction of total acidic species content vs unsupplemented control ([4]; 0.2 g/L in feed): 22%
reduction of aggregation content, relative value ([5]; 5 mg/L in feed): 9%
reduction of aggregation content, relative value ([5]; 20 mg/L in feed): 23%
reduction of aggregation content, relative value ([5]; 50 mg/L in feed): 44%
